pKi: −log10 of the molar value. Where two headings read alike, the source gives them in different places.
How the values were obtained:
CB2 receptor = target: T1, CB2 receptor (Mus musculus, UniProt P47936); assay: CB2 receptor binding assay ([3H]CP-55,940 displacement), without PMSF; conditions: mouse spleen membranes
T1 construct: membranes were prepared from frozen mouse spleen; from tissue; host or cells: frozen mouse spleen membranes
Method: (§1) The treated membranes Were subsequently used in the binding assay described below. Approximately 30 μg of PMSF-treated membranes were incubated in silanized 96-well microtiter plate with TME containing 0.1% essentially fatty acid-free bovine serum albumin (BSA), 0.8 nM [^3H] […] The samples were filtered using Packard Filtermate 196 and Whatman GF/C filterplates and washed with wash buffer (TME) containing 0.5% BSA. Radioactivity was detected using MicroScint 20 scintillation cocktail added directly to the dried filterplates, and the filterplates were counted using a Packard Instruments Top-Count. Nonspecific binding was assessed using 100 nM CP-55,940. Data collected from three independent experiments performed with duplicate determinations was normalized between 100% and 0% specific binding for [^3H] CP-55,940, determined using buffer and 100 nM CP-55,940. The normalized data was analyzed using a 4-parameter nonlinear logistic equation to yield IC50 values.
For the CB2 receptor binding studies, membranes were prepared from frozen mouse spleen essentially according to the procedure of P. R. Dodd et al, A Rapid Method for Preparing Synaptosomes: Comparison with Alternative Procedures, Brain Res., 226, 107–118 (1981). Silanized centrifuge tubes were used throughout to minimize receptor loss due to adsorption. The CB2 binding assay was conducted in the same manner as for the CB1 binding assay except the assays were conducted without PMSF. […] The binding affinities (Ki) are expressed in nanomoles (nM).

CB1 cannabinoid receptor = target: T2, CB1 cannabinoid receptor (Rattus norvegicus, UniProt P20272); assay: CB1 receptor binding assay ([3H]CP-55,940 displacement), with and without PMSF; conditions: rat forebrain membranes
T2 construct: membranes were prepared from rat forebrain membranes; from tissue; host or cells: rat forebrain membranes
T2 sequence (P20272 whole entry): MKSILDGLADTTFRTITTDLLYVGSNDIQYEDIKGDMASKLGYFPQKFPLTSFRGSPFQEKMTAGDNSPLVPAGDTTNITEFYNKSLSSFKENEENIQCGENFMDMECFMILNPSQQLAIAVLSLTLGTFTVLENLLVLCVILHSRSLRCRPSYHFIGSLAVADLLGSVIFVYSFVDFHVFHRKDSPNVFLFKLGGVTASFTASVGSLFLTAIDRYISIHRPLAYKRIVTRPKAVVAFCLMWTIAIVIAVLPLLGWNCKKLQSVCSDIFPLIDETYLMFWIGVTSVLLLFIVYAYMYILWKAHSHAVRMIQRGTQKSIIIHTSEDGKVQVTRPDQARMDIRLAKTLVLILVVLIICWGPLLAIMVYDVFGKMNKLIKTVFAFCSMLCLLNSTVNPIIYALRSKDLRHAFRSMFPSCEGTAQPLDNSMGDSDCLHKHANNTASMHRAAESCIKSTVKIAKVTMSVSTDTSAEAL
Method: It is known that the enzymatic action of anandamide amidase can be moderated or prevented in vitro by the inclusion of phenylmethanesulfonyl fluoride (PMSF). PMSF functions as a nonselective protease inhibitor. Thus the ligand binding determinations for the CB1 receptor were carried out in the presence and absence of PMSF, to obtain both CB1 receptor binding affinity and a relative measure of the analog's metabolic stability. The binding affinities (Ki) are expressed in nanomoles (nM).
For the CB1 receptor binding studies, membranes were prepared from rat forebrain membranes according to the procedure of P. R. Dodd et al, A Rapid Method for Preparing Synaptosomes: Comparison with Alternative Procedures, Brain Res., 107–118 (1981). The binding of the novel analogues to the CB1 cannabinoid receptor was assessed as described in W. A. Devane et al, Determination and Characterization of a Cannabinoid Receptor in a Rat Brain, Mol. Pharmacol., 34, 605–613 (1988) and A. Charalambous et al, 5′-azido Δ^8-THC: A Novel Photoaffinity Label for the Cannabinoid Receptor, J. Med. Chem., 35, 3076–3079 (1992) with the following changes. The above articles are incorporated by reference herein.
Membranes, previously frozen at −80° C., were thawed on ice. To the stirred suspension was added three volumes of 25 mM Tris-HCl buffer, 5 mM MgCl2 and 1 mM EDTA, pH 7.4 (TME) containing 150 μM PMSF (made fresh in 2-propanol as a 100 mM stock). The suspension was incubated at 4° C., and after 15 min a second addition of PMSF stock brought the concentration to 300 μM PMSF; then the mixture was incubated for another 15 min. At the end of the second 15-min incubation, the membranes were pelleted and washed three times with TME to remove un-reacted PMSF.
as §1
The CB1 ligand binding determinations in the absence of PMSF were performed in a similar manner to the above test, except without the use of PMSF.

[1] = PMSF-treated, read-out: KI (CB1), with PMSF
[2] = without PMSF (anandamide amidase active), read-out: KI (CB1), without PMSF

T1 sequence (P47936 whole entry): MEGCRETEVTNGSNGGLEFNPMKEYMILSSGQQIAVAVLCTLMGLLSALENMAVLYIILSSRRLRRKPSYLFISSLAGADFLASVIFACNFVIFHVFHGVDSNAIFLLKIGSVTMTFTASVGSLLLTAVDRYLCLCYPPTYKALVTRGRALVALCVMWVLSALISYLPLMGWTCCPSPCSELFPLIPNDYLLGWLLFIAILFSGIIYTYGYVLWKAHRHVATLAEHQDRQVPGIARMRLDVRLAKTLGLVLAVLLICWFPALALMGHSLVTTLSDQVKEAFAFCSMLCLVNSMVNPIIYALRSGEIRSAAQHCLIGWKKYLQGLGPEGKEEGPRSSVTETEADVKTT

SMILES | pKi (CB2 receptor) | pKi (CB1 cannabinoid receptor; [1]) | pKi (CB1 cannabinoid receptor; [2])
CCCCC/C=C\C/C=C\C/C=C\C/C=C\CCCC(=O)N[C@H](C)CN=[N+]=[N-] (racemic) [Analog 4, (R)-(+−)-Arachidonyl-1′-azido-2′-propylamide] | 5.91 | 7.90 | 7.59
CCCCC/C=C\C/C=C\C/C=C\C/C=C\CCCC(=O)N[C@H](C)CF [Analog 1, N-(2-Fluoro-1R-(methylethyl)arachidonylamide)] | 6.11 | 8.93 | 8.00
CCCCC/C=C\C/C=C\C/C=C\C/C=C\CCCC(=O)N[C@@H](C)CF [Analog 2] | 5.87 | 9.04 | 7.25
CCCCCC=CCC=CCC=CCC=CCCCC(=O)NCCCl [Analog 5, N-(2-Chloroethyl)arachidonylamide] | 6.71 | 8.28 | 5.47
CCCCCC=CCC=CCC=CCC=CCCCC(=O)NCCCCl [Analog 6, N-(3-Chloropropyl)arachidonylamide] | 6.71 | 7.59 | 6.41
C=CCNC(=O)CCC/C=C\C/C=C\C/C=C\C/C=C\CCCCC [Analog 7, N-Allylarachidonylamide] | 6.65 | 8.00 | 5.53
C#CCNC(=O)CCC/C=C\C/C=C\C/C=C\C/C=C\CCCCC [Analog 8, N-Propargylarachidonylamide] | 6.54 | 7.97 | 5.31
CCCCCC=CCC=CCC=CCC=CCCCC(=O)NCC(F)(F)F [Analog 9, N-(2,2,2-Trifluroethyl) arachidonylamide] | 6.14 | 7.44 | 5.62
CCCCC/C=C\C/C=C\C/C=C\C/C=C\CCCCNC(=O)CCO [Analog 10, N-(3-Hydroxypropionyl)arachidonylamine] | 5.45 | 6.94 | 6.87
CCCCC/C=C\C/C=C\C/C=C\C/C=C\CCCCNC(=O)COC(C)=O [Analog 11, N-(2-Acetoxyacetyl)arachidonylamine] | – | 6.38 | 6.38
CCCCC/C=C\C/C=C\C/C=C\C/C=C\CCCCNC(=O)CO [Analog 12] | – | 7.70 | 7.64

Source: patent US7161016B1, “Cannabimimetic lipid amides as useful medications” (University of Connecticut, priority 1998, dated 2007)
